Test results: patent US8722729B2, “Unsaturated fatty acid monoesters and diesters on ascorbic acid and cosmetic uses thereof” (Pierre Fabre Dermo-Cosmetique, priority 2009, dated 2014)
Entries after “also recorded” stand apart in the source; their conditions may differ. Marks after values point to notes of the source that are not given here.

Tests used:
MMP-3 = test: Gene expression of MMP-3 in human dermal fibroblasts treated with H2O2 (real-time PCR); type: cell-based; conditions: for RQ (relative quantity of mRNA) MMP-3 / % Inhibition of the level of mRNA expression MMP-3: 3 μM; for RQ (relative quantity of mRNA) MMP-3: senescent fibroblasts stimulated with H2O2, non-treated control = 1; for % Inhibition of the level of mRNA expression MMP-3: vs H2O2 alone
Method: To evidence the activity of the compounds of general formula (I) against skin ageing and against inflammation, the effect of these compounds was measured on the gene expression of MMP-1, MMP-3 and IL8 in human dermal fibroblasts treated with H2O2, thereby mimicking the process of cellular senescence. The effect of these compounds of general formula (I) was also measured on the synthesis of hyaluronic acid and on hyaluronidase activity. The stimulation of the synthesis of hyaluronic acid also allows skin hydration to be improved and/or restored (Bissett D L. J. Cosmet. Dermatol. 2006 Dec. 5(4): 309-15. Glucosamine: an ingredient with skin and other benefits).
Human dermal fibroblasts (isolated from discarded operative skin) were cultured in DMEM culture medium+10% FCS. The cells were pre-treated with vitamin C and the compound to be tested for 16 h at 37° C. and then stimulated with H2O2. The cells were then replaced in DMEM with vitamin C and dioctadeca-9,12-dienoate of (9Z,9′Z,12Z,12′Z)-2-(2,2-dimethyl-1,3-dioxolan-4-yl)-5-oxo-2,5-dihydrofuran-3,4-diyl. 72 hours after ending of stress, the fibroblasts entered into senescence: the senescent fibroblasts no longer proliferate but remain metabolically active (Hayflick, J. Invest. Dermatol., 73; 8-14, 1979). The cells were then lysed with the lysis buffer of the RNeasy® kit (QIAGEN).
The extracted RNAs were converted to complementary DNA following the indications of the Quantitect Reverse Transcription kit by Qiagen. Real-time PCR analyses were conducted using an iQ cycler fluorescence thermocycler (BIO-RAD).
The level of expression of the mRNAs coding for MMP-1, MMP-3, IL8 was analyzed using the real-time PCR technique. To normalize the level of expression of the gene of interest, the analysis strategy developed by Vandesompela et al., Genome Biol. 3: RESEARCH0034 (2002) was chosen. […] In our model, the three tested reference genes were the following: β-actin (Human β-actin), GAPDH (Human glyceraldehyde-3-phosphate dehydrogenase) and YWHAZ (Tyrosine-3-monooxygenase, tryptopgan-5-monooxygenase activation protein zeta polypeptide).
The first step normalizes the Ct values obtained for the gene of interest in relation to the Ct values obtained for the reference gene, for each experimental condition.
The following was therefore calculated: ΔCt=Ctgene of interest−Ctreference gene
The second step of the calculation determines the variation in the number of copies of the gene of interest during treatment. To do so ΔΔCt is calculated: ΔΔCt=ΔCtnon-treated NHF−ΔCttreated NHF
For the non-treated control, this QR is therefore equal to 1. It is then possible to calculate an induction or inhibition factor of the gene of interest compared with this control.
Statistical analysis was performed using a test called “one-way ANOVA”. Variance analysis using the Dunnett test then allows the comparing, for each of the analyzed genes, of the ΔCt values of normal adult fibroblasts with the compounds in the presence of H2O2 in both cases. This test then gives the “p value” characterizing the significance of the results obtained for both conditions The degree of significance was established as follows: • significant for p<0.05(*) • very significant for p<0.005(**) • highly significant for p<0.001(***) • non-significant for p>0.05. […]
It is also possible to calculate percentage inhibition of the level of expression of the different mRNAs by the active ingredients to be evaluated, using the formula: […]

[1] = target: T1, hyaluronidase of bovine origin (BTH, Bovine Testis hyaluronidase) (Bos taurus, UniProt Q2YDK3); test: Assay of hyaluronidase activity (residual HA, HA-ELISA); type: biochemical
T1 sequence (Q2YDK3 1-553): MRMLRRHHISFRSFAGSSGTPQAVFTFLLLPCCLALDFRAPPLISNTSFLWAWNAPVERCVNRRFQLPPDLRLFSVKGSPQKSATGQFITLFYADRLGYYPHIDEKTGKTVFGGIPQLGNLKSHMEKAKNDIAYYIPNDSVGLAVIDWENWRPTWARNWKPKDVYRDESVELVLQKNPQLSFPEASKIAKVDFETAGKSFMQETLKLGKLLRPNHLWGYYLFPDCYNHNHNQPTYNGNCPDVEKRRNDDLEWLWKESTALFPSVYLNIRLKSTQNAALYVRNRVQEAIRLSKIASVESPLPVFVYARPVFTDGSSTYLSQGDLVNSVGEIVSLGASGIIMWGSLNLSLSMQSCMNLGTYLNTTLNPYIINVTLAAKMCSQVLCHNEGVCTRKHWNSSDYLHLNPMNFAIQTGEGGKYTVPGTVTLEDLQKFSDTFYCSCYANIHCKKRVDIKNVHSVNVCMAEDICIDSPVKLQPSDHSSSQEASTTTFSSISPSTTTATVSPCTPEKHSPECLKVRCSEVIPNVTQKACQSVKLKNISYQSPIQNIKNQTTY
Method: Hyaluronidase activity is measured by the assay of residual hyaluronic acid (HA). The substrate is fixed to a carrier then placed in the presence of an enzyme and a quantity of compound to be tested. The residual HA i.e. the non-hydrolyzed HA is assayed using a HA-Elisa detection system: Hyaluronan enzyme-linked immunosorbent assay (Echelon Biosciences®).
0.5 units of hyaluronidase of bovine origin (BTH, Bovine Testis hyaluronidase) were pre-incubated at 37° C. with the compound to be tested. This mixture was deposited on the HA fixed to the surface of a microplate well. The enzymatic reaction took place at pH 7.2n at 37° C. Washing was followed by a recognition step of residual HA by hyaluronectin (NH). The quantity of bonded NH was measured by ELISA using an anti-NH antibody conjugated with alkaline phosphatase. The p-nitrophenyl phosphate disodium salt (pnNpp) substrate of the phosphatase allows spectrometric detection at 405 nm. (Delpech B et al., Analytical Biochemistry 149, 555(565 (1985); Robert Stern et al. Analytical Biochemistry 251, 263-269 (1997)). OD intensity was correlated with the quantity of residual HA. The quantity of residual HA is directly linked to enzymatic activity. In the presence of an inhibitor, the larger the quantity of residual HA the more the sample is inhibiting. A percentage inhibition of hyaluronidase will be expressed.
Therefore the net enzymatic activities were calculated which represent the difference in mean gross activity without enzyme and the gross activity of the enzyme with or without the compound to be tested.
The percentage enzymatic inhibition related to the compound to be tested was calculated as follows: % inhibition=(Maximum net enzymatic activity)−Net enzymatic activity in the presence of the compound to be tested)/Maximum net enzymatic activity.
where the maximum net enzymatic activity represents the mean net enzymatic activity of 0.5 U.

[2] = 0.5 U BTH, read-out: Enzymatic inhibition (mean as a percentage)

Row | Compound | RQ (relative quantity of mRNA) MMP-3 (MMP-3) | % Inhibition of the level of mRNA expression MMP-3 (MMP-3) | Effect on hyaluronidase [1] | inhibition at 100 µM [1, 2] [%] | inhibition at 500 µM [1, 2] [%] | Inhibition of MMP3 expression compared with ascorbic acid (MMP-3) | inhibition at 5 µM ([1]; 5 μM, 0.5 U BTH, read-out: Enzymatic inhibition (mean as a percentage)) [%] | inhibition at 10 µM ([1]; 10 μM, 0.5 U BTH, read-out: Enzymatic inhibition (mean as a percentage)) [%] | inhibition at 20 µM ([1]; 20 μM, 0.5 U BTH, read-out: Enzymatic inhibition (mean as a percentage)) [%] | inhibition at 25 µM ([1]; 25 μM, 0.5 U BTH, read-out: Enzymatic inhibition (mean as a percentage)) [%] | inhibition at 30 µM ([1]; 30 μM, 0.5 U BTH, read-out: Enzymatic inhibition (mean as a percentage)) [%] | inhibition at 40 µM ([1]; 40 μM, 0.5 U BTH, read-out: Enzymatic inhibition (mean as a percentage)) [%] | inhibition at 50 µM ([1]; 50 μM, 0.5 U BTH, read-out: Enzymatic inhibition (mean as a percentage)) [%] | inhibition at 250 µM ([1]; 250 μM, 0.5 U BTH, read-out: Enzymatic inhibition (mean as a percentage)) [%] | IC50 ([1]; in the region of) [µM]
1 | O=C1O[C@H]([C@@H](O)CO)C(O)=C1O [Ascorbic acid, ascorbic acid] | 3.5 | 50* % | no effect | 1 | 4 | – | – | – | – | – | – | – | – | – | –
2 | CCCCC/C=C\C/C=C\CCCCCCCC(=O)OC1=C(OC(=O)CCCCCCC/C=C\C/C=C\CCCCC)C(C2COC(C)(C)O2)OC1=O (centres unmarked) [Molecule 1, diactodeca-9,12-dienoate of (9Z,9′Z,12Z,12′Z)-2-(2,2-dimethyl-1,3-dioxolan-4-yl)-5-oxo-2,5-dihydrofuran-3,4-diyl] | 1.9 | 81*** % | strongly inhibit hyaluronidase; also recorded: equivalent to or more active than ascorbyl palmitate | 113 | 122 | more substantially inhibits the expression of MMP1, MMP3 and IL-8 than ascorbic acid | 14 | 21 | 44 | 46 | 66 | 86 | 76 | 119 | 25 to 30
